Data as given in the supplement of paper PMC11061612.

Legend:
[1] = compound: C=CCn1c(=O)c2cnc(Nc3ccc(N4CCN(C)CC4)cc3)nc2n1-c1cccc(C(C)(C)O)n1 [AZD1775]; settings: max 3 µM
Method in brief: (§1)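 In 1536-well plates, cancer cell lines in 7.5 μl DMEM/F12 or RPMI with 10% FBS spent 24 hours at 37°C and 5% CO2 and were then dosed for 72 hours with final DMSO typically 0.2%. Viability was read by CellTiter-Glo 2.0 luminescence and scaled between blank-well and DMSO-well means. The single-agent IC50 was fitted from dose responses using a logistic curve in a non-linear mixed effects model, and that logistic curve had two parameters.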

[2] = compound: CC(=O)Nc1cccc(-n2c(=O)n(C3CC3)c(=O)c3c(Nc4ccc(I)cc4F)n(C)c(=O)c(C)c32)c1 [Trametinib]; settings: max 1 µM
Method in brief: as §1

[3] = compound: Cc1cc2ncnn2cc1Nc1ncc2c(n1)n(C1CCOCC1)c(=O)n2C [AZD7648]; settings: max 10 µM
Method in brief: as §1

[4] = compound: O=c1[nH]cc(F)c(=O)[nH]1 [5-Fluorouracil]; settings: max 20 µM
Method in brief: as §1

[5] = compound: Nc1ccn([C@@H]2O[C@H](CO)[C@@H](O)C2(F)F)c(=O)n1 [Gemcitabine]; settings: max 0.3 µM
Method in brief: as §1

[6] = compound: COc1cc([C@@H]2c3cc4c(cc3[C@@H](O[C@@H]3O[C@@H]5CO[C@@H](C)O[C@H]5[C@H](O)[C@H]3O)[C@H]3COC(=O)[C@H]23)OCO4)cc(OC)c1O [Etoposide]; settings: max 10 µM
Method in brief: as §1

[7] = compound: C1CN(CCC1(C(=O)N[C@@H](CCO)C2=CC=C(C=C2)Cl)N)C3=NC=NC4=C3C=CN4 [AZD5363]; settings: max 10 µM
Method in brief: as §1

[8] = compound: Cc1nc(-c2cn3c(n2)-c2ccc(-c4cnn(C(C)(C)C(N)=O)c4)cc2OCC3)n(C(C)C)n1 [Taselisib]; settings: max 10 µM
Method in brief: as §1

[9] = compound: CC(=O)c1c(C)c2cnc(Nc3ccc(N4CCNCC4)cn3)nc2n(C2CCCC2)c1=O [Palbociclib]; settings: max 10 µM
Method in brief: as §1

[10] = compound: CCc1c2c(nc3ccc(O)cc13)-c1cc3c(c(=O)n1C2)COC(=O)[C@]3(O)CC [SN-38]; settings: max 0.3 µM
Method in brief: as §1

[11] = compound: CC1=CN2[C@@H](C1)C=NC3=CC(=C(C=C3C2=O)OC)OCCCCCOC4=C(C=C5C(=C4)N=C[C@@H]6CC(=CN6C5=O)C)OC [SG3199]; settings: max 0.001 µM
Method in brief: as §1

[12] = compound: COc1cc2ncnc(Nc3ccc(F)c(Cl)c3)c2cc1OCCCN1CCOCC1 [Gefitinib]; settings: max 10 µM
Method in brief: as §1

[13] = compound: C[C@@H](Nc1cc(F)cc(F)c1)c1cc(C(=O)N(C)C)cc2c(=O)cc(N3CCOCC3)oc12 [AZD8186]; settings: max 10 µM
Method in brief: as §1

[14] = compound: CC1=C(C(=CC=C1)Cl)NC(=O)C2=CN=C(S2)NC3=CC(=NC(=N3)C)N4CCN(CC4)CCO [Dasatinib]; settings: max 2 µM
Method in brief: as §1

[15] = compound: COc1cccc2c1C(=O)c1c(O)c3c(c(O)c1C2=O)C[C@@](O)(C(=O)CO)C[C@@H]3O[C@H]1C[C@H](N)[C@H](O)[C@H](C)O1 [Doxorubicin]; settings: max 1 µM
Method in brief: as §1

[16] = compound: N#Cc1cnc(Nc2cc(NC[C@H]3CNCCO3)c(C(F)(F)F)cn2)cn1 [SRA737]; settings: max 10 µM
Method in brief: as §1

[17] = compound: Cc1c2c(nn1C)CSCc1cc(n(C)n1)CSc1cc(c3ccccc3c1)OCCCc1c(C(=O)O)n(C)c3c-2c(Cl)ccc13 [AZD5991]; settings: max 1 µM
Method in brief: as §1

[18] = compound: C[C@@H](Oc1cc(-c2cnn(C3CCNCC3)c2)cnc1N)c1c(Cl)ccc(F)c1Cl [Crizotinib]; settings: max 10 µM
Method in brief: as §1

[19] = compound: NC1(c2ccc(-c3nc4ccn5c(=O)[nH]nc5c4cc3-c3ccccc3)cc2)CCC1 [MK-2206]; settings: max 10 µM
Method in brief: as §1

[20] = compound: CCN(CCO)CCCOc1ccc2c(Nc3cc(CC(=O)Nc4cccc(F)c4)[nH]n3)ncnc2c1 [AZD2811]; settings: max 1 µM
Method in brief: as §1

[21] = compound: COc1nnc2ccc(N3CCC(c4ccc(OCCN5CCN(C)C(=O)[C@H]5C)cc4)CC3)nn12 [AZD5153]; settings: max 1 µM
Method in brief: as §1

[22] = compound: C[C@@H]1COCCN1C2=NC(=NC(=C2)C3(CC3)[S@](=N)(=O)C)C4=C5C=CNC5=NC=C4 [AZD6738]; settings: max 10 µM
Method in brief: as §1

[23] = compound: O=C(Nc1ccc2[nH]nc(-c3ccncc3)c2c1)[C@@H]1CCN(CC(=O)N2CCN(c3ccc(-c4ncccn4)cc3)CC2)C1; settings: max 5 µM
Method in brief: as §1

[24] = compound: CC(C)n1c(=O)n(C)c2cnc3cc(F)c(-c4ccc(OCCCN5CCCCC5)nc4)cc3c21 [AZD1390]; settings: max 0.3 µM
Method in brief: as §1

[25] = compound: CN(CC[C@H](CSC1=CC=CC=C1)NC2=C(C=C(C=C2)S(=O)(=O)NC(=O)C3=CC=C(C=C3)N4CCC(CC4)[C@H](C5=CC=CC=C5C6=CC=C(C=C6)Cl)O)S(=O)(=O)C(F)(F)F)CCO [AZD4320]; settings: max 1 µM
Method in brief: as §1

[26] = compound: CS(=O)(=O)CCNCc1ccc(-c2ccc3ncnc(Nc4ccc(OCc5cccc(F)c5)c(Cl)c4)c3c2)o1 [Lapatinib]; settings: max 10 µM
Method in brief: as §1

[27] = compound: C[C@@H](c1ccc2nccn2c1)n1nnc2ncc(-c3cnn(C)c3)nc21 [Savolitinib]; settings: max 1 µM
Method in brief: as §1

[28] = compound: CN(C)CCCOc1ccc(-c2ccc3ncc4c(c3c2)n(C2CCOCC2)c(=O)n4C)cn1 [AZD0156]; settings: max 3 µM
Method in brief: as §1

[29] = compound: O=C(c1cc(Cc2n[nH]c(=O)c3ccccc23)ccc1F)N1CCN(C(=O)C2CC2)CC1 [Olaparib]; settings: max 10 µM
Method in brief: as §1

[30] = compound: C1CC(C1)(C(=O)[O-])C(=O)[O-].N.N.[Pt+2] [Carboplatin]; settings: max 10 µM
Method in brief: as §1

[31] = compound: COc1cc(Nc2ncc3c(n2)-c2ccc(Cl)cc2C(c2c(F)cccc2OC)=NC3)ccc1C(=O)O [Alisertib]; settings: max 10 µM
Method in brief: as §1

[32] = compound: CC(=O)O[C@H]1C(=O)[C@@]2(C)[C@H]([C@H](OC(=O)c3ccccc3)[C@]3(O)C[C@H](OC(=O)[C@H](O)[C@@H](NC(=O)c4ccccc4)c4ccccc4)C(C)=C1C3(C)C)[C@]1(OC(C)=O)CO[C@@H]1C[C@@H]2O [Paclitaxel]; settings: max 3 µM
Method in brief: as §1

[33] = compound: CC1(C)CCC(CN2CCN(c3ccc(C(=O)NS(=O)(=O)c4ccc(NCC5CCOCC5)c([N+](=O)[O-])c4)c(Oc4cnc5[nH]ccc5c4)c3)CC2)=C(c2ccc(Cl)cc2)C1 [Venetoclax]; settings: max 1 µM
Method in brief: as §1

[34] = compound: Cn1cnc2c(F)c(Nc3ccc(Br)cc3Cl)c(C(=O)NOCCO)cc21 [Selumetinib]; settings: max 10 µM
Method in brief: as §1

[35] = compound: COc1cccc(OCCCN)c1-c1cc(Nc2cnc(C#N)cn2)n[nH]1 [Prexasertib]; settings: max 1 µM
Method in brief: as §1

Cell Line | IC50, cell viability 72 h [1] [nM] | IC50, cell viability 72 h [2] [nM] | IC50, cell viability 72 h [3] [nM] | IC50, cell viability 72 h [4] [nM] | IC50, cell viability 72 h [5] [nM] | IC50, cell viability 72 h [6] [nM] | IC50, cell viability 72 h [7] [nM] | IC50, cell viability 72 h [8] [nM] | IC50, cell viability 72 h [9] [nM] | IC50, cell viability 72 h [10] [nM] | IC50, cell viability 72 h [11] [nM] | IC50, cell viability 72 h [12] [nM] | IC50, cell viability 72 h [13] [nM] | IC50, cell viability 72 h [14] [nM] | IC50, cell viability 72 h [15] [nM] | IC50, cell viability 72 h [16] [nM] | IC50, cell viability 72 h [17] [nM] | IC50, cell viability 72 h [18] [nM] | IC50, cell viability 72 h [19] [nM] | IC50, cell viability 72 h [20] [nM] | IC50, cell viability 72 h [21] [nM] | IC50, cell viability 72 h [22] [nM] | IC50, cell viability 72 h [23] [nM] | IC50, cell viability 72 h [24] [nM] | IC50, cell viability 72 h [25] [nM] | IC50, cell viability 72 h [26] [nM] | IC50, cell viability 72 h [27] [nM] | IC50, cell viability 72 h [28] [nM] | IC50, cell viability 72 h [29] [nM] | IC50, cell viability 72 h [30] [nM] | IC50, cell viability 72 h [31] [nM] | IC50, cell viability 72 h [32] [nM] | IC50, cell viability 72 h [33] [nM] | IC50, cell viability 72 h [34] [nM] | IC50, cell viability 72 h [35] [nM]
EB-3 (Burkitt's Lymphoma) | 555 | > 1000 | > 10000 | > 20000 | > 300 | 1020 | > 10000 | > 10000 | > 10000 | 52.9 | > 1 | > 10000 | > 10000 | > 2000 | 194 | > 10000 | > 1000 | 7290 | > 10000 | > 1000 | 128 | 7040 | > 5000 | > 300 | > 1000 | > 10000 | > 1000 | > 3000 | > 10000 | > 10000 | > 10000 | 88.7 | > 1000 | > 10000 | 86.4
FLO-1 (Esophageal Adenocarcinoma) | 266 | > 1000 | > 10000 | 7080 | 93.8 | 2550 | > 10000 | 8830 | > 10000 | 201 | > 1 | > 10000 | > 10000 | 64.8 | 225 | > 10000 | > 1000 | 9360 | > 10000 | > 1000 | 793 | > 10000 | > 5000 | > 300 | > 1000 | > 10000 | > 1000 | > 3000 | > 10000 | > 10000 | 7300 | 5.42 | > 1000 | > 10000 | 99.3
KYM-1 (Rhabdomyosarcoma) | 926 | > 1000 | > 10000 | 8560 | 5.74 | 668 | 7860 | > 10000 | 522 | 23.5 | > 1 | > 10000 | > 10000 | > 2000 | 485 | 846 | > 1000 | 2940 | > 10000 | > 1000 | 54.8 | 2640 | > 5000 | > 300 | > 1000 | > 10000 | > 1000 | > 3000 | > 10000 | > 10000 | > 10000 | 5.57 | > 1000 | > 10000 | 33.8
KYSE-70 (Esophageal Squamous Cell Carcinoma) | > 3000 | > 1000 | > 10000 | > 20000 | > 300 | > 10000 | > 10000 | 4070 | > 10000 | > 300 | > 1 | > 10000 | > 10000 | > 2000 | > 1000 | > 10000 | > 1000 | > 10000 | > 10000 | > 1000 | > 1000 | > 10000 | > 5000 | > 300 | > 1000 | > 10000 | > 1000 | > 3000 | > 10000 | > 10000 | > 10000 | > 3000 | > 1000 | > 10000 | 241
LAMA-84 (Chronic Myelogenous Leukemia) | 351 | 16.3 | > 10000 | > 20000 | 24.6 | 8280 | > 10000 | > 10000 | 3090 | 24.6 | > 1 | > 10000 | > 10000 | < 2 | > 1000 | 2110 | > 1000 | 527 | 5120 | > 1000 | 146 | 2020 | 915 | > 300 | 486 | > 10000 | > 1000 | > 3000 | > 10000 | > 10000 | 305 | 37 | > 1000 | 1570 | 17.3
